Measured values as given in patent US20110124630A1, “STEMONAMIDE SYNTHESIS INTERMEDIATE AND PHARMACEUTICAL COMPOSITION FOR PREVENTION AND/OR TREATMENT OF CANCER” (priority 2008, published 2011).

What was measured:
Pim-3 = Pim-3 (Homo sapiens, UniProt Q86V86); experiment: In vitro assay of Pim-3 kinase activity (His-Bad phosphorylation, ELISA with anti-pBad Ser112 antibody); type: biochemical; conditions: 0, 20, 40, 80, 160 μmol/l compound; 10 μmol/l ATP; 30° C. 1 hour; FIG. 1
Experimental: A His-Bad protein solution (3 μg/ml) diluted with a carbonate buffer (pH 9.6) (15 mmol/l Na2CO3(Wako), […] NaHCO3 (Wako), 0.02% (w/v) NaN3 (Wako), pH 9.6) was added at 100 μl/well to a 96-well microplate (Nunc-Immuno™ Plate, NUNC Brand Products, Nalge Nunc International, Denmark), and the plate was coated at 4° C. overnight. The plate was washed 3 times on the following day, a 1% BSA/PBS(−) solution was added at 150 μl/well, the plate was blocked at 37° C. for 1 hour, and the plate was then washed 3 times. A kinase buffer containing 19.2 nmol/l thioredoxin-hexahistidine-Pim-3 fusion protein, 10 μmol/l ATP (Cell Signaling), and Compounds 5, 7, and 12 synthesized in the examples above (0, 20, 40, 80, and 160 μmol/l) (25 mmol/l Tris-HCl (pH 7.5), 10 mmol/l MgCl2, 0.1 mmol/l Na3VO4, 2 mmol/l dithiothreitol (DTT), 5 mmol/l s-glycerophosphate, Cell Signaling) was added at 40 μl/well to the treated plate. After the reaction was carried out at 30° C. for 1 hour, the plate was washed 5 times, the 1.000-fold diluted anti-pBadser112 rabbit antibody (Cell Signaling) was added at 100 μl/well, and the reaction was carried out at 37° C. for 1 hour. […] The plate was subjected to the absorbance assay at 405 nm using a microplate reader (Model 550, Bio-Rad). […]

HepG2 = experiment: Cell growth assay (liver cancer cell), WST-1; type: cell-based, human; conditions: 4, 6, 8, 10 μmol/l, 0-96 hours, FIG. 8
Experimental: (§1) Human liver cancer cell lines (Hep3B, HuH7, and HepG2 at 4000, 3000, and 4000 cells/well) were dispensed into a 96-well cell culture Microtest Plate (Becton Dickinson) with 100 μl of culture media. The media were removed 16 to 18 hours after the initiation of culture, and media containing the test compounds (0.1% DMSO, Compound 7 (4, 6, 8, and 10 μmol/l)) were added at 100 μl/well. After culture was continued for 0, 24, 48, 72, and 96 hours, the medium containing the test compound was removed, and a 10% WST-1 medium (Roche) was added at 100 μl/well. After culture was conducted for an additional 1 hour, the absorbance at 450 nm was assayed using a microplate reader (Model 550, Bio-Rad). RPMI-1640 medium (SIGMA) was used, and 10% calf serum (Invitrogen), 50 U/ml penicillin G (SIGMA), and 50 μg/ml streptomycin (SIGMA) were added to the medium. The cell lines were cultured in a 37° C. 5% CO2 carbon dioxide incubator (ESPEC).

HuH7 = experiment: Cell growth assay (liver cancer cell), WST-1; type: cell-based, human; conditions: 4, 6, 8, 10 μmol/l, 0-96 hours, FIG. 8
Experimental: as §1

Hep3B = experiment: Cell growth assay (liver cancer cell), WST-1; type: cell-based, human; conditions: 4, 6, 8, 10 μmol/l, 0-96 hours, FIG. 8
Experimental: as §1

PCI35 cell line = experiment: Cell growth assay (pancreatic cancer cell), WST-1; type: cell-based, human; conditions: Compound 7 4-10 μmol/l, Compound 12 5-30 μmol/l, 0-96 hours, FIG. 2
Experimental: (§2) Human pancreatic cancer cell lines (PCI35, PCI55, PCI66, MiaPaCa-2, L3.6 […], and PANC-1) were dispensed into a 96-well cell culture Microtest Plate (Becton Dickinson) at 3,000 cells/well with 100 μl of culture media. The media were removed 16 to 18 hours after the initiation of culture, and media containing the test compounds (i.e., 0.1% DMSO, Compound 7 (4, 6, 8, 10 μmol/l), Compound 12 (5, 10, 20, 30 μmol/l)) were added at 100 μl/well. After culture was continued for 0, 24, 48, 72, and 96 hours, the medium containing the test compound was removed, and a 10% WST-1 medium (Roche) was added at 100 μl/well. After culture was conducted for an additional 1 hour, the absorbance at 450 nm was assayed using a microplate reader (Model 550, Bio-Rad). RPMI-1640 medium (SIGMA) was used for the PCI35, PCI55, PCI66, MiaPaCa-2, and PANC-1 cell lines, MEM medium (Invitrogen) was used for the L3.6 pl cell lines, and 10% calf serum (Invitrogen), 50 U/ml penicillin G (SIGMA), and 50 μg/ml streptomycin (SIGMA) were added to every medium. The cell lines were cultured in a 37° C. 5% CO2 carbon dioxide incubator (ESPEC).

PANC-1 cell line = experiment: Cell growth assay (pancreatic cancer cell), WST-1; type: cell-based, human; conditions: Compound 7 4-10 μmol/l, Compound 12 5-30 μmol/l, 0-96 hours, FIG. 4
Experimental: as §2

PCI55 cell line = experiment: Cell growth assay (pancreatic cancer cell), WST-1; type: cell-based, human; conditions: Compound 7 4-10 μmol/l, Compound 12 5-30 μmol/l, 0-96 hours, FIG. 3
Experimental: as §2

L3.6 pl cell line = experiment: Cell growth assay (pancreatic cancer cell), WST-1; type: cell-based, human; conditions: Compound 7 4-10 μmol/l, Compound 12 5-30 μmol/l, 0-96 hours, FIG. 5
Experimental: as §2

MiaPaCa-2 cell line = experiment: Cell growth assay (pancreatic cancer cell), WST-1; type: cell-based, human; conditions: Compound 7 4-10 μmol/l, Compound 12 5-30 μmol/l, 0-96 hours, FIG. 6
Experimental: as §2

PCI66 cell line = experiment: Cell growth assay (pancreatic cancer cell), WST-1; type: cell-based, human; conditions: Compound 7 4-10 μmol/l, Compound 12 5-30 μmol/l, 0-96 hours, FIG. 7
Experimental: as §2

SW48 = experiment: Cell growth assay (colon cancer cell), WST-1; type: cell-based, human; conditions: 4, 6, 8, 10 μmol/l, 0-96 hours, FIG. 9
Experimental: (§3) Human colon cancer cell lines (SW48, SW480, and HT29 at 3,000 cells/well) were dispensed into a 96-well cell culture Microtest Plate (Becton Dickinson) with 100 μl of culture media. The media were removed 16 to 18 hours after the initiation of culture, and the media containing the test compounds (0.1% DMSO, Compound 7 (4, 6, 8, and 10 μmol/l)) were added at 100 μl/well. After culture was continued for 0, 24, 48, 72, and 96 hours, the medium containing the test compound was removed, and a 10% WST-1 medium (Roche) was added at 100 μl/well. After culture was conducted for an additional 1 hour, the absorbance at 450 nm was assayed using a microplate reader (Model 550, Bio-Rad). RPMI-1640 medium (SIGMA) was used, and 10% calf serum (Invitrogen), 50 U/ml penicillin G (SIGMA), and 50 μg/ml streptomycin (SIGMA) were added to the medium. The cell lines were cultured in a 37° C. 5% CO2 carbon dioxide incubator (ESPEC).

SW480 = experiment: Cell growth assay (colon cancer cell), WST-1; type: cell-based, human; conditions: 4, 6, 8, 10 μmol/l, 0-96 hours, FIG. 9
Experimental: as §3

HT29 = experiment: Cell growth assay (colon cancer cell), WST-1; type: cell-based, human; conditions: 4, 6, 8, 10 μmol/l, 0-96 hours, FIG. 9
Experimental: as §3

Structure (SMILES) | inhibition of Pim-3 activity (Pim-3) | inhibition of cell growth (HepG2) | inhibition of cell growth (HuH7) | inhibition of cell growth (Hep3B) | melting point | inhibition of cell growth (PCI35 cell line) | inhibition of cell growth (PANC-1 cell line) | inhibition of cell growth (PCI55 cell line) | inhibition of cell growth (L3.6 pl cell line) | inhibition of cell growth (MiaPaCa-2 cell line) | inhibition of cell growth (PCI66 cell line) | inhibition of cell growth (SW48) | inhibition of cell growth (SW480) | inhibition of cell growth (HT29)
O=C1CC[C@@]23C(=O)CC[C@@H]2CCCCN13 [Compound 5] | inhibit the Pim-3 activity in a concentration-dependent manner |  |  |  |  |  |  |  |  |  |  |  |  | 
CCOC(=O)C#C[C@@]1(O)/C(=C/c2ccccc2)C[C@@H]2CCCCN3C(=O)CC[C@]231 [Compound 7] | inhibit the Pim-3 activity in a concentration-dependent manner | inhibit the growth | inhibit the growth | inhibit the growth | 209 to 211 °C | inhibit the growth | inhibit the growth | inhibit the growth | inhibit the growth | inhibit the growth | inhibit the growth | inhibit the growth | inhibit the growth | inhibit the growth
